From patent US9701707B2, “Methods of synthesizing substituted purine compounds” (Epizyme, Inc., priority 2013, dated 2017)

Tests used:
Format in all cases: physicochemical
[1] = Solid-state stability (chemical and physical); details: 5° C. Closed Dish, 7 Days
Procedure: Chemical Stability: Accurately weighed ˜10 mg Form B was placed into four 10-ml volumetric flasks. The samples were stored at 5° C. closed dish, 25° C./57% RH open dish, 40° C./75% RH open dish, and 60° C. closed dish for 7 days. The sample stored at 5° C. was used as a control. Assay and total related substances for each sample were checked at the end of 7 days.
Physical Stability: Accurately weighed ˜15 mg of Form B was placed into 5-ml glass vials and the samples were stored at 5° C. closed dish, 25° C./57% RH open dish, 40° C./75% RH open dish, and 60° C. closed dish for 7 days. Samples were analyzed by XRPD and TGA (FIG. 24).

[2] = Solution photostability
Procedure: Solution Photostability: Weighed ˜1 mg of Form B and dissolved in 3 solutions at different pHs (0.01 N HCl, 0.01 N NaOH and water). Methanol was added as a co-solvent to dissolve Form B in solutions (i.e., 10% (v/v) methanol in 0.01 N HCl, 20% (v/v) in water and 30% (v/v) in 0.01 N NaOH), the final concentration was 0.1 mg/mL. For each solution, 1 sample and 1 control covered in foil were put into the photo chamber for Vis study (2 vials total for each solution). Measure the concentration and monitor the degradation.

[3] = Solid-state photostability
Procedure: The solid-state photostability of EP-1 trihydrate (x is 3) was assessed upon exposure to UV/Vis light according to ICH guidelines. Loss of claim %, loss of area %, and degradates were evaluated versus dark control samples.
Solid-State Photostability: Weighed ˜5 mg Form B into glass vials with 2 vials covered with foil as the controls. Put these 2 samples with their controls into chamber and expose them to Vis (10 Kilo lux) for 120 hrs followed by UV (10 W/m^2) for 20 hrs (per ICH guidelines). At the end of Vis, take 1 sample and 1 control out for analysis and the others were taken out after both Vis and UV exposure.

[4] = Equilibrium solubility in organic solvents; details: RT; for Remaining Solid: XRPD; for solubility at 24 h: organic solvent or mixture, thermodynamic from solid
Procedure: Approximately 10 mg of Form B was weighed into a 1-ml glass vial followed by addition of 0.5 ml relevant media. Each sample was continuously stirred using a magnetic stir bar at 25° C. for 24 h. The suspension was then filtered using a nylon membrane with a pore diameter of 0.22 μm. The filtrates were diluted for HPLC analysis and final pH was measured. The solid residue of each sample was collected for XRPD analysis. The solubility of Form B was also determined in commonly used organic solvents (diluents or HPLC mobile phase). The solubility data summarized in Table 10 indicates Form B is quite soluble in MeOH, EtOH, and IPA.

[5] = 0.01N HCl Dark, Vis Stability (1.2 Mil lux-hours), final pH 2.1
[6] = 0.01N HCl Dark, Vis-UV Stability (1.2 Mil lux-hours + 200 Watt-hours/m^2), final pH 2.1
[7] = 0.01N HCl Light, Vis Stability (1.2 Mil lux-hours), final pH 2.1
[8] = 0.01N HCl Light, Vis-UV Stability (1.2 Mil lux-hours + 200 Watt-hours/m^2), final pH 2.1
[9] = 0.01N NaOH Dark, Vis Stability (1.2 Mil lux-hours), final pH 11.6, precipitation observed
[10] = 0.01N NaOH Dark, Vis-UV Stability (1.2 Mil lux-hours + 200 Watt-hours/m^2), final pH 11.7, precipitation observed
[11] = 0.01N NaOH Light, Vis Stability (1.2 Mil lux-hours), final pH 11.7, precipitation observed
[12] = 0.01N NaOH Light, Vis-UV Stability (1.2 Mil lux-hours + 200 Watt-hours/m^2), final pH 11.7, precipitation observed
[13] = H2O Dark, Vis Stability (1.2 Mil lux-hours), final pH 7.7
[14] = H2O Dark, Vis-UV Stability (1.2 Mil lux-hours + 200 Watt-hours/m^2), final pH 8.1
[15] = H2O Light, Vis Stability (1.2 Mil lux-hours), final pH 7.3
[16] = H2O Light, Vis-UV Stability (1.2 Mil lux-hours + 200 Watt-hours/m^2), final pH 7.3
[17] = Bulk control (covered with foil), Vis Stability (1.2 Mil lux-hours)
[18] = Bulk control (covered with foil), Vis-UV stability (1.2 Mil lux-hours + 200 Watt-hours/m^2)
[19] = Bulk, Vis Stability (1.2 Mil lux-hours)
[20] = Bulk, Vis-UV stability (1.2 Mil lux-hours + 200 Watt-hours/m^2)

**Q.** With `CC(C)N(C[C@H]1O[C@@H](n2cnc3c(N)ncnc32)[C@H](O)[C@@H]1O)[C@H]1C[C@@H](CCc2nc3cc(C(C)(C)C)ccc3[nH]2)C1` [Form B, (2R,3R,4S,5R)-2-(6-amino-9H-purin-9-yl)-5-((((1r,3S)-3-(2-(5-(tert-butyl)-1H-benzo[d]imidazol-2-yl)ethyl)cyclobutyl)(isopropyl)amino)methyl)tetrahydrofuran-3,4-diol trihydrate] as the compound, how does the “Physical: XRPD” value [1] read?
**A.** The value was “Form B”.

**Q.** And the “Chemical: % Claim (Cs/Ci × 100%)” value ([1]; sample used as standard for the calculation)?
**A.** Its value is 100.0^& %.

**Q.** And the “% area (100% − TRS%)” value [2, 5]?
**A.** Its value is 99.4%.

**Q.** And the “% claim (Cs/Ci × 100%)” value [2, 5]?
**A.** The value was 100.0%.

**Q.** And the “% area (100% − TRS%)” value [2, 6]?
**A.** Its value is 99.9%.

**Q.** And the “% claim (Cs/Ci × 100%)” value [2, 6]?
**A.** Its value is 100.0%.

**Q.** And the “% area (100% − TRS%)” value [2, 7]?
**A.** Its value is 98.5%.

**Q.** What about the “% claim (Cs/Ci × 100%)” value [2, 7] of the same compound?
**A.** Its value is 98.8%.

**Q.** What about the “% area (100% − TRS%)” value [2, 8] of the same compound?
**A.** The value was 99.9%.

**Q.** What about the “% claim (Cs/Ci × 100%)” value [2, 8] of the same compound?
**A.** Its value is 99.9%.

**Q.** And the “% area (100% − TRS%)” value [2, 9]?
**A.** The value was 99.7%.

**Q.** And the “% claim (Cs/Ci × 100%)” value [2, 9]?
**A.** Its value is 100.0%.

**Q.** And the “% area (100% − TRS%)” value [2, 10]?
**A.** Its value is 100.0%.

**Q.** And the “% claim (Cs/Ci × 100%)” value [2, 10]?
**A.** Its value is 100.0%.

**Q.** And the “% area (100% − TRS%)” value [2, 11]?
**A.** The value was 99.6%.

**Q.** What about the “% claim (Cs/Ci × 100%)” value [2, 11] of the same compound?
**A.** Its value is 44.5%.

**Q.** And the “% area (100% − TRS%)” value [2, 12]?
**A.** Its value is 99.3%.

**Q.** What about the “% claim (Cs/Ci × 100%)” value [2, 12] of the same compound?
**A.** Its value is 66.3%.

**Q.** And the “% area (100% − TRS%)” value [2, 13]?
**A.** Its value is 100.0%.

**Q.** What about the “% claim (Cs/Ci × 100%)” value [2, 13] of the same compound?
**A.** Its value is 100.0%.

**Q.** And the “% area (100% − TRS%)” value [2, 14]?
**A.** The value was 100.0%.

**Q.** What about the “% claim (Cs/Ci × 100%)” value [2, 14] of the same compound?
**A.** The value was 100.0%.

**Q.** And the “% area (100% − TRS%)” value [2, 15]?
**A.** Its value is 99.6%.

**Q.** What about the “% claim (Cs/Ci × 100%)” value [2, 15] of the same compound?
**A.** Its value is 98.5%.

**Q.** What about the “% area (100% − TRS%)” value [2, 16] of the same compound?
**A.** The value was 99.3%.

**Q.** What about the “% claim (Cs/Ci × 100%)” value [2, 16] of the same compound?
**A.** Its value is 94.7%.

**Q.** And the solution photostability ([2]; in water and 0.01N HCl solution, exposure to UV/Vis)?
**A.** Its solution photostability is “stable”.

**Q.** What about the “% area (100% − TRS%)” value [3, 17] of the same compound?
**A.** The value was 99.7%.

**Q.** What about the “% claim (Cs/Ci × 100%)” value [3, 17] of the same compound?
**A.** Its value is 100.0%.

**Q.** What about the “% area (100% − TRS%)” value [3, 18] of the same compound?
**A.** The value was 99.8%.

**Q.** What about the “% claim (Cs/Ci × 100%)” value [3, 18] of the same compound?
**A.** The value was 100.0%.

**Q.** What about the “% area (100% − TRS%)” value [3, 19] of the same compound?
**A.** The value was 99.8%.

**Q.** What about the “% claim (Cs/Ci × 100%)” value [3, 19] of the same compound?
**A.** The value was 101.1%.

**Q.** What about the “% area (100% − TRS%)” value [3, 20] of the same compound?
**A.** The value was 99.8%.

**Q.** And the “% claim (Cs/Ci × 100%)” value [3, 20]?
**A.** Its value is 99.6%.

**Q.** And the solid-state photostability ([3]; exposure to full ICH photostability requirement, versus dark control)?
**A.** Its solid-state photostability is “stable”.

**Q.** And the “Remaining Solid” value ([4]; Acetone)?
**A.** The value was “Form B”.

**Q.** And the “Remaining Solid” value ([4]; Acetonitrile)?
**A.** The value was “Form B”.

**Q.** And the solubility at 24 h ([4]; Ethanol)?
**A.** Its solubility at 24 h is over 87 mg/mL.

**Q.** What about the solubility at 24 h ([4]; Isopropanol) of the same compound?
**A.** The solubility at 24 h was over 129 mg/mL.

**Q.** And the solubility at 24 h ([4]; Methanol)?
**A.** The solubility at 24 h was over 200 mg/mL.
